Assay results published in patent US20070071672A1, “Use of metal tricarbonyl complexes as radiotherapeutic chemotoxic agents” (priority 2003, published 2007).

What was measured:
ΦX174 plasmid DNA [1] = experiment: Interaction with ΦX174 plasmid DNA, gel electrophoretic mobility shift; type: binding; details: [complex]/[bp] 0.018-1.8/1, water, 37° C., 22 h, agarose gel
Description: (§1) ΦX174 plasmids were purchased from Promega and used without further purification. ΦX174 RF plasmid DNA (0.1 mg) was mixed with the corresponding rhenium complexes in H2O at [complex]/[bp] 0.018-1.8/1. The mixtures were incubated in water at 37° C. for 22 h in the dark before analyzing by gel electrophoresis. The pH of the mixtures remained constant at ≈7 in all cases.
(§2) DNA binding was examined by gel electrophoretic mobility shift assays through 9 cm 0.75% agarose slab gels with TAE running buffer. The gels were run at RT, with voltages varying between 50 and 75 V. Running time depended upon the voltage and were usually between 1.5-2 h. The resultant gels were stained with ethidium bromide in the buffer at a concentration of ≈0.3 μg/mL. Bands were visualized by […] UV transillumination equipped with a digital camera.

[2] = tested on: B16 F1 mouse melanoma cells; experiment: XTT cell proliferation assay, melanoma cells; details: 200 μM based on Re (lower for poorly soluble complexes), 24 h
Description: (§3) In a typical experiment (see FIG. 10) an average of 2000 cells were grown in microtiter plates (tissue culture grade, 96 wells, flat bottom) in a final volume of 100 μL culture medium per well in a humidified-atmosphere (37° C., >6.5% CO2). After 24 h the rhenium complex was added the wells (final concentrations 200 μM based on Re) and the cells were grown for further 24 h under a humidified atmosphere. After the incubation period 50 μL of the XTT labeling mixture were added to each well. The plates were incubated again for 4 h. After the this final incubation period the spectrophotometrical absorbance (optical density OD) of each well was measured at 450 nm.
(§4) Control experiments were performed as described above without the addition of the rhenium compounds. Blanks were obtained by adding 50 μL of H2O instead of the XTT labeling mixture. Experiments were done in double and the results represent the average.
(§5) The % of cell survival was calculated base on the relative OD of the samples. Maximum control OD was set to 100% cell survival.
(§6) The procedure is as described in Example 10 and FIG. 10. Only the cancer cell line varies.

[3] = tested on: MDA-MB-4355 Breast Cancer Cells; experiment: XTT cell proliferation assay, breast cancer cells; set-up: species or system human; details: 200 μM based on Re, 24 h
Description: as §3, §4, §5

[4] = tested on: OVMZ-6-WT Ovarian Cancer Cells; experiment: XTT cell proliferation assay, ovarian cancer cells; set-up: species or system human; details: 200 μM based on Re, 24 h
Description: as §3, §4, §5, §6

ΦX174 plasmid DNA [5] = experiment: Stability of the [M(CO)3]+ ΦX174 plasmid DNA adduct, histidine challenge; type: binding; details: 100-fold excess of histidine
Description: as §1, §2
Complexes 1 and 7 were incubated with ΦX174 plasmid DNA as described in Example 6. Subsequently, the plasmid was challenged with histidine to cleave the complexes from ΦX174 plasmid DNA.

Row | Molecule | scrambling (structural change) of ΦX174 plasmid DNA (ΦX174 plasmid DNA [1]) | cytotoxicity (% of cell survival) [2] | cytotoxicity (% of cell survival) [3] | cytotoxicity (% of cell survival) [4] | release of complex from ΦX174 plasmid DNA by histidine (ΦX174 plasmid DNA [5])
1 | N.N.[Cl][Pt][Cl] [cisplatin, reference compound] | increased amount of scrambling | – | – | – | –
2 | (Et4N)2[ReBr3(CO)3] [Complex 1] | – | strongly inhibit cell proliferation | inhibit cell proliferation | inhibits cell proliferation | no release could be observed
3 | [Re(9-MeG)2(H2O) (CO)3] (ClO4) [Complex 3] | – | – | inhibit cell proliferation | – | –
